Source: ChEMBL document CHEMBL5046300, “Potent Bactericidal Antimycobacterials Targeting the Chaperone ClpC1 Based on the Depsipeptide Natural Products Ecumicin and Ohmyungsamycin A” (2022)
≈ marks a conversion by molar mass, not a printed value. Calls of active or inactive are those of the source. No cut-off for these calls is given here. Where a SMILES comes first, the peptide text is derived from it. Bridges are numbered along the chain shown (N, C = ends). [ ]: non-standard residue; d: D form. NMeW = CN[C@@H](Cc1c[nH]c2ccccc12)C(=O)O; NMeT = CN[C@H](C(=O)O)[C@@H](C)O; NMeD = CN[C@@H](CC(=O)O)C(=O)O; NMeL = CN[C@@H](CC(C)C)C(=O)O; NMeNle = CCCC[C@H](NC)C(=O)O; NMeDap = CN[C@@H](CN)C(=O)O; NMeV = CN[C@H](C(=O)O)C(C)C; NMeS = CN[C@@H](CO)C(=O)O; Pip = O=C(O)[C@@H]1CCCCN1; Sar = CNCC(=O)O

Key:
[1] = test system: Mycobacterium tuberculosis; assay: Antimycobacterial activity against Mycobacterium tuberculosis mc2 6230 measured after 7 days; type: functional; details: mc2 6230, 168 h, time 7 day
[2] = test system: Mycobacterium tuberculosis; assay: Antimycobacterial activity against Mycobacterium tuberculosis mc2 6230 assessed as log reduction in bacteria measured up to 21 days by Time kill assay; type: functional, organism-based; details: time day <=21

`CN[C@H](C(=O)N[C@H](C(=O)N[C@@H]1C(=O)N(C)[C@@H]([C@@H](C)O)C(=O)N[C@@H](C(C)C)C(=O)N(C)[C@@H](CC(C)C)C(=O)N[C@@H](C(C)C)C(=O)N(C)[C@@H](CO)C(=O)N(C)[C@@H](Cc2c[nH]c3ccccc23)C(=O)N[C@@H](C(C)C)C(=O)N[C@@H](Cc2ccccc2)C(=O)N[C@@H](C(C)C)C(=O)O[C@@H]1C)C(C)C)C(C)C` (H-[NMeV]VT[NMeT]V[NMeL]V[NMeS][NMeW]VFV; ester 3-C) gave an MIC [1] of 2 µM (≈ 2.8 µg/mL).
Compound `CN[C@H](C(=O)N[C@H](C(=O)N[C@@H]1C(=O)N(C)[C@@H]([C@@H](C)O)C(=O)N[C@@H](C(C)C)C(=O)N(C)[C@@H](CC(C)C)C(=O)N[C@@H](C(C)C)C(=O)N(C)CC(=O)N(C)[C@@H](Cc2c[nH]c3ccccc23)C(=O)N[C@@H](C(C)C)C(=O)N[C@@H](Cc2ccccc2)C(=O)N[C@@H](C(C)C)C(=O)O[C@@H]1C)C(C)C)C(C)C` (H-[NMeV]VT[NMeT]V[NMeL]V[Sar][NMeW]VFV; ester 3-C) has an MIC [1] of 8 µM (≈ 11 µg/mL).
Work on `CN[C@H](C(=O)N[C@H](C(=O)N[C@@H]1C(=O)N(C)[C@@H]([C@@H](C)O)C(=O)N[C@@H](C(C)C)C(=O)N(C)[C@@H](CC(C)C)C(=O)N[C@@H](C(C)C)C(=O)N(C)[C@@H](CN)C(=O)N(C)[C@@H](Cc2c[nH]c3ccccc23)C(=O)N[C@@H](C(C)C)C(=O)N[C@@H](Cc2ccccc2)C(=O)N[C@@H](C(C)C)C(=O)O[C@@H]1C)C(C)C)C(C)C` (H-[NMeV]VT[NMeT]V[NMeL]V[NMeDap][NMeW]VFV; ester 3-C) yielded an MIC [1] of 2 µM (≈ 2.8 µg/mL).
Compound `CN[C@H](C(=O)N[C@H](C(=O)N[C@@H]1C(=O)N(C)[C@@H]([C@@H](C)O)C(=O)N[C@@H](C(C)C)C(=O)N(C)[C@@H](CC(C)C)C(=O)N[C@@H](C(C)C)C(=O)N(C)[C@@H](CC(=O)O)C(=O)N(C)[C@@H](Cc2c[nH]c3ccccc23)C(=O)N[C@@H](C(C)C)C(=O)N[C@@H](Cc2ccccc2)C(=O)N[C@@H](C(C)C)C(=O)O[C@@H]1C)C(C)C)C(C)C` (H-[NMeV]VT[NMeT]V[NMeL]V[NMeD][NMeW]VFV; ester 3-C) has an MIC [1] of 32 µM (≈ 45.7 µg/mL).
Compound `CN[C@H](C(=O)N[C@H](C(=O)N[C@@H]1C(=O)N(C)[C@@H]([C@@H](C)O)C(=O)N[C@@H](C(C)C)C(=O)N(C)[C@@H](CC(C)C)C(=O)N[C@@H](C(C)C)C(=O)N2CCCC[C@H]2C(=O)N(C)[C@@H](Cc2c[nH]c3ccccc23)C(=O)N[C@@H](C(C)C)C(=O)N[C@@H](Cc2ccccc2)C(=O)N[C@@H](C(C)C)C(=O)O[C@@H]1C)C(C)C)C(C)C` (H-[NMeV]VT[NMeT]V[NMeL]V[Pip][NMeW]VFV; ester 3-C) has an MIC [1] of 4 µM (≈ 5.64 µg/mL).
In the case of `CN[C@H](C(=O)N[C@H](C(=O)N[C@@H]1C(=O)N(C)[C@@H]([C@@H](C)O)C(=O)N[C@@H](C(C)C)C(=O)N(C)[C@@H](CC(C)C)C(=O)N[C@@H](C(C)C)C(=O)N(C)[C@@H](Cc2c[nH]c3ccccc23)C(=O)N(C)[C@@H](Cc2c[nH]c3ccccc23)C(=O)N[C@@H](C(C)C)C(=O)N[C@@H](Cc2ccccc2)C(=O)N[C@@H](C(C)C)C(=O)O[C@@H]1C)C(C)C)C(C)C` (H-[NMeV]VT[NMeT]V[NMeL]V[NMeW][NMeW]VFV; ester 3-C), the MIC [1] is reported as 0.5 µM (≈ 0.75 µg/mL).
Compound `CCCC[C@H]1C(=O)N(C)[C@@H](Cc2c[nH]c3ccccc23)C(=O)N[C@@H](C(C)C)C(=O)N[C@@H](Cc2ccccc2)C(=O)N[C@@H](C(C)C)C(=O)O[C@H](C)[C@H](NC(=O)[C@@H](NC(=O)[C@@H](NC)C(C)C)C(C)C)C(=O)N(C)[C@@H]([C@@H](C)O)C(=O)N[C@@H](C(C)C)C(=O)N(C)[C@@H](CC(C)C)C(=O)N[C@@H](C(C)C)C(=O)N1C` (H-[NMeV]VT[NMeT]V[NMeL]V[NMeNle][NMeW]VFV; ester 3-C) has an MIC [1] of 0.5 µM (≈ 0.713 µg/mL).
For `CN[C@H](C(=O)N[C@H](C(=O)N[C@@H]1C(=O)N(C)[C@@H]([C@@H](C)O)C(=O)N[C@@H](C(C)C)C(=O)N(C)[C@@H](CC(C)C)C(=O)N[C@@H](C(C)C)C(=O)N(C)[C@@H](CC(C)C)C(=O)N(C)[C@@H](Cc2c[nH]c3ccccc23)C(=O)N[C@@H](C(C)C)C(=O)N[C@@H](Cc2ccccc2)C(=O)N[C@@H](C(C)C)C(=O)O[C@@H]1C)C(C)C)C(C)C` (H-[NMeV]VT[NMeT]V[NMeL]V[NMeL][NMeW]VFV; ester 3-C), the MIC [1] was 0.25 µM (≈ 0.357 µg/mL) and the Activity [2] was “Active”.
